Assay results from ChEMBL document CHEMBL1201862, “PubChem BioAssay data set” (2004).
Calls of active or inactive are those of the source.

Key:
Nonstructural protein 1 = Nonstructural protein 1 (Influenza A virus, UniProt Q194T2); type: functional, Influenza A virus (A/California/07/2009(H1N1))
Beta-lactamase = Beta-lactamase (Pseudomonas aeruginosa, UniProt Q79MP6);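 also: biochemical dose-response test of metallo-beta-lactamase enzyme inhibition, read out by epi-absorbance; purified recombinant IMP-1 metallo-beta-lactamase with nitrocefin as substrate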
Large T antigen = Large T antigen (Simian virus 40, UniProt P03070); type: functional, Betapolyomavirus macacae;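 also: Confirmatory-stage PubChem screen for compounds that inhibit SV40 T antigen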
HEK293 = test: optical interference in Abeta FP readout, dose response, artefact control for IDE activator project, biochemical, fluorescence polarization (AID 588442); type: functional, cell-based; details: Homo sapiens
[1] = target: T1, Mannose-6-phosphate isomerase (Homo sapiens, UniProt P34949); test: MPI inhibition at elevated mannose 6-phosphate – biochemical, fluorescence intensity, high mannose 6-phosphate, primary screen (AID 1220)
T1 sequence (P34949 whole entry): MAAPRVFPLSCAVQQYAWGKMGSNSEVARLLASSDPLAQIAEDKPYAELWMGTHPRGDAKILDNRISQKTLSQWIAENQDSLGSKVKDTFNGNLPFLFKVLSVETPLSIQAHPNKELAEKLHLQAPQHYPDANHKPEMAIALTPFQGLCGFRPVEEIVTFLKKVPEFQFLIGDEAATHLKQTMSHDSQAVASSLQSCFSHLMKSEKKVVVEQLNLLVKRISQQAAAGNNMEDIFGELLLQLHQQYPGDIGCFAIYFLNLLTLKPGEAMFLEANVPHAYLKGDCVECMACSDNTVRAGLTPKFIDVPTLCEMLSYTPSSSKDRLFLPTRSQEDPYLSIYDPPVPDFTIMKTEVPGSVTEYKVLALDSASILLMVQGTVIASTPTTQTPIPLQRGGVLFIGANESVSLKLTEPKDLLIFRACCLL

[2] = target: Protein-tyrosine kinase 2-beta (Homo sapiens, UniProt Q14289);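 also: potency of inhibitors of PYK2 kinase phosphorylation of poly-GT substrate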
Cysteine protease ATG4B = target: T2, Cysteine protease ATG4B (Homo sapiens, UniProt Q9Y4P1); type: functional;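 also: Fluorescence-based dose-response confirmation assay measuring inhibition of ATG4B activity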
T2 sequence (Q9Y4P1 whole entry): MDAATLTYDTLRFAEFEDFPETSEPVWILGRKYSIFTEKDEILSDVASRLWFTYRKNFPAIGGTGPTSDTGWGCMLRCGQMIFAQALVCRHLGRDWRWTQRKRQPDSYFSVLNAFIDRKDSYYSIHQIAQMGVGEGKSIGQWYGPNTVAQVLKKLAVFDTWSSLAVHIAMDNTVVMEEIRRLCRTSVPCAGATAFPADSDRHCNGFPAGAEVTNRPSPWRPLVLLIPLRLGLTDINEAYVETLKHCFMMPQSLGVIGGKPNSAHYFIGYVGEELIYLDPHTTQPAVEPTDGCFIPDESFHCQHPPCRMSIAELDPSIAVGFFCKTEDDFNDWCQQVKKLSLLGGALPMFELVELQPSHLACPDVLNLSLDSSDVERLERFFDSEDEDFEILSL

[3] = target: T3, Sentrin-specific protease 8 (Homo sapiens, UniProt Q96LD8); type: functional;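 also: luminescence read-out of SENP8 inhibition, dose-response confirmation following an ultra-high-throughput screen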
T3 sequence (Q96LD8 whole entry): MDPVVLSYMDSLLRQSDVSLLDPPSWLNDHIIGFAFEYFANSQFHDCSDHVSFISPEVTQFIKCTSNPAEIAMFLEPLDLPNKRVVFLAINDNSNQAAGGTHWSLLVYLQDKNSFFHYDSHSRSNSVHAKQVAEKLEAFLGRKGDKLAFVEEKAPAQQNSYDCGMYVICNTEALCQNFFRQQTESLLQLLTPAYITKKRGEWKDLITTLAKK

Caspase-3 = target: T4, Caspase-3 (Homo sapiens, UniProt P42574); type: functional;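 also: Dose-response selectivity test against caspase-3 for candidate inhibitors of sentrin-specific proteases (SENPs)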
T4 sequence (P42574 whole entry): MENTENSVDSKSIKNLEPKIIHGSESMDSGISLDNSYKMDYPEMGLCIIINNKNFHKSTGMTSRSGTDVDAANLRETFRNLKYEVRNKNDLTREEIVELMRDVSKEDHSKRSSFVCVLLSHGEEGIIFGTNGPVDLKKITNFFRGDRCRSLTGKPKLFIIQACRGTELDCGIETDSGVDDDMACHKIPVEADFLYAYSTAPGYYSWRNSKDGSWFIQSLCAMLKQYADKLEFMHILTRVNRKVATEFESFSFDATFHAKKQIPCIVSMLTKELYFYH

SUMO E1/E2 = SUMO E1/E2 (Homo sapiens, UniProt P63279+Q9UBE0+Q9UBT2); test: SAR analysis of SUMOylation using HTRF in an in-Vitro dose response assay. [Related pubchem assays (depositor defined):AID2006, AID2011, AID2018, AID2069, AID2658]; type: functional
Bcl-2-related protein A1 = target: T5, Bcl-2-related protein A1 (Mus musculus, UniProt Q07440); test: small-molecule antagonists of Bfl-1/BH3 interaction – biochemical, TR-FRET, mouse Bfl-1, confirmation (AID 621);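 also: TR-FRET binding of GST-Bfl-1 to FITC-labelled Bid peptide via terbium antibody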
T5 sequence (Q07440 whole entry): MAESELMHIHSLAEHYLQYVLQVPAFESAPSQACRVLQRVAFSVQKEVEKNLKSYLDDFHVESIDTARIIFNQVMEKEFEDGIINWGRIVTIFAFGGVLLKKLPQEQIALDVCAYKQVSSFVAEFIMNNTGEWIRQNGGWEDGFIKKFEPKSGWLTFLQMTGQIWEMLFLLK

Mu-type opioid receptor = Mu-type opioid receptor (Homo sapiens, UniProt P35372); test: Counterscreen for agonists of heterodimerization of the mu 1 (OPRM1) and delta 1 (OPRD1) opioid receptors: Luminescence-based cell-based high throughput dose response assay to identify agonists of OPRM1 homodimerization.; type: functional;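 also: U2OS cells expressing OPRM1 and beta-arrestin as split beta-galactosidase partners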
[4] = Trypanosoma cruzi growth suppression in host cells – NIH3T3 host cells, beta-gal luminescence, confirmation (AID 2044); type: functional, cell-based;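 also: intracellular parasites grown in NIH/3T3 mouse fibroblasts as host cells; luminescent beta-galactosidase reporter signal from transgenic T. cruzi replicating inside host cells; inhibitors lower the luminescence signal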
[5] = NIH3T3 cell viability loss – ATP luminescence, mouse fibroblasts, counter-screen, dose response (AID 2010); type: functional, cell-based;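 also: cells exposed to compound for about 90 hours before reading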

SUMO E1/E2, sequence (Q9UBE0 whole entry): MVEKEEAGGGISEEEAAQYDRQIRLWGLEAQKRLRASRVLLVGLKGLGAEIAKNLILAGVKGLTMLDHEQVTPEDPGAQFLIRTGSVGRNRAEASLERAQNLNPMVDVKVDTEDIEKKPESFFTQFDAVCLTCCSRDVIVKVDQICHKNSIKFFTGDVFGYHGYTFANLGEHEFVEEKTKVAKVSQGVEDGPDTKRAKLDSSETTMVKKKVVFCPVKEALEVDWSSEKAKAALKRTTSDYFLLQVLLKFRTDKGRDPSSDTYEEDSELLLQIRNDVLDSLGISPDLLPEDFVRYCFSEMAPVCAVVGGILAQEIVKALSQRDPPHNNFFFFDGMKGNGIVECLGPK
SUMO E1/E2, sequence (Q9UBT2 whole entry): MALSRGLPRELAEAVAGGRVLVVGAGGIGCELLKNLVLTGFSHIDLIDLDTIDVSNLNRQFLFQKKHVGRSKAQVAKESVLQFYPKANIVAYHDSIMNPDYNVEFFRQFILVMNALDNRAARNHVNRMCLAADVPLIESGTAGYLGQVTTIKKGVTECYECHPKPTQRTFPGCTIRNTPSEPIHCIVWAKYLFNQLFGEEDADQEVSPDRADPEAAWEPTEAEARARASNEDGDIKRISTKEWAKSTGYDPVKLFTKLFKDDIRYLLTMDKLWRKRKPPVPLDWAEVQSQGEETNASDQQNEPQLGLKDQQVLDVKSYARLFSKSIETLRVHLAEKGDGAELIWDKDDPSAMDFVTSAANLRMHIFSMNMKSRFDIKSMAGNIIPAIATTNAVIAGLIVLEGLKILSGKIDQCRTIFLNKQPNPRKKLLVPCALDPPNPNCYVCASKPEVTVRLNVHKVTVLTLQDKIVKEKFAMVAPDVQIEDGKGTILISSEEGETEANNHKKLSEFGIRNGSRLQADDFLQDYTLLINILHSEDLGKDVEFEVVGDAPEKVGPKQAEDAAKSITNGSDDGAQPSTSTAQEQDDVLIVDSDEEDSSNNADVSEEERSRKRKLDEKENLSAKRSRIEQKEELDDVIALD
SUMO E1/E2, sequence (P63279 whole entry): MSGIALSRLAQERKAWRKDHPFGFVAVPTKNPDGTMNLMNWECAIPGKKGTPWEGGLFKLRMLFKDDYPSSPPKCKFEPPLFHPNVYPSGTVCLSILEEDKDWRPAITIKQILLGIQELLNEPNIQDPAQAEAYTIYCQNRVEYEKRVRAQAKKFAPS
Beta-lactamase, sequence (Q79MP6 whole entry): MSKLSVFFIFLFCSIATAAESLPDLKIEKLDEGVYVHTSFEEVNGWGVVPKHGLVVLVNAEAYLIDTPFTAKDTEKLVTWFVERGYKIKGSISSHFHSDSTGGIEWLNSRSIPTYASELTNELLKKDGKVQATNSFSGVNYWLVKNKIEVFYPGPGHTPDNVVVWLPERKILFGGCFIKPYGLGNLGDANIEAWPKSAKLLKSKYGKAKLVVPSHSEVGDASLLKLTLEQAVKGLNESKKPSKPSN
Mu-type opioid receptor, sequence (P35372 whole entry): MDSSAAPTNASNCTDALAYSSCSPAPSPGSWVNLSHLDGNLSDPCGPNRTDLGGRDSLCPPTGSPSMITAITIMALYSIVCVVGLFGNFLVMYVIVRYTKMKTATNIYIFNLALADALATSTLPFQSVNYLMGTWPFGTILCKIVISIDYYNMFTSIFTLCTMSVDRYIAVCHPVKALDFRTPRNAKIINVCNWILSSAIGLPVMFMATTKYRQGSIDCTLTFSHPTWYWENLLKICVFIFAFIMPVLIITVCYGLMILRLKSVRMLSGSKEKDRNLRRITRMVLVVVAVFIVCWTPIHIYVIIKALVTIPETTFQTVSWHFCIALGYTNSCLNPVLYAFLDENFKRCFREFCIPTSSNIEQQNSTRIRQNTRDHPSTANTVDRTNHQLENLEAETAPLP
Large T antigen, sequence (P03070 whole entry): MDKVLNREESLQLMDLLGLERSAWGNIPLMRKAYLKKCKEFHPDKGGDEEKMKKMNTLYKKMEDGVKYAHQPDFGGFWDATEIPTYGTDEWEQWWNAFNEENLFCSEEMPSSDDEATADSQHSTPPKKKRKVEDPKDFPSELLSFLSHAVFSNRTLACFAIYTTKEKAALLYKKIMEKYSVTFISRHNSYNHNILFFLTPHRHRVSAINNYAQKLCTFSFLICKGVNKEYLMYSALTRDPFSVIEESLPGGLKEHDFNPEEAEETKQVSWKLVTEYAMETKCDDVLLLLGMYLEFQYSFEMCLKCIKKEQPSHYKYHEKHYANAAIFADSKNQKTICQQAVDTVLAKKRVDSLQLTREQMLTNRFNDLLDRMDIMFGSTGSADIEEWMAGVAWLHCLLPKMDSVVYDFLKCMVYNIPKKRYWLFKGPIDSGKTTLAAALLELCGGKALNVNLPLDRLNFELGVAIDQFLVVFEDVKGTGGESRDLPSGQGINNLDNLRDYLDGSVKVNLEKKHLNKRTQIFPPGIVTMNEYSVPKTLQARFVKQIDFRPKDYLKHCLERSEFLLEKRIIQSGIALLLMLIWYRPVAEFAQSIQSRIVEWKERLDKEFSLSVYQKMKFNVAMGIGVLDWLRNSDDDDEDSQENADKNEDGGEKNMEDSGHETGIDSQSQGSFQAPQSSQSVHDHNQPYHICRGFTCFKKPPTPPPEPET
Nonstructural protein 1, sequence (Q194T2 whole entry): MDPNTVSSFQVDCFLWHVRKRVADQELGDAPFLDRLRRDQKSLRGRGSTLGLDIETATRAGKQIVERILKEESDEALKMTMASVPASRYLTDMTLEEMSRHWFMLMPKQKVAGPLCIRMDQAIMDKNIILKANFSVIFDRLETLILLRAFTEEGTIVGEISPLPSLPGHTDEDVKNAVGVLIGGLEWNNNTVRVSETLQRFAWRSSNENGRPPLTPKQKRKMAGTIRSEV
Protein-tyrosine kinase 2-beta, sequence (Q14289 whole entry): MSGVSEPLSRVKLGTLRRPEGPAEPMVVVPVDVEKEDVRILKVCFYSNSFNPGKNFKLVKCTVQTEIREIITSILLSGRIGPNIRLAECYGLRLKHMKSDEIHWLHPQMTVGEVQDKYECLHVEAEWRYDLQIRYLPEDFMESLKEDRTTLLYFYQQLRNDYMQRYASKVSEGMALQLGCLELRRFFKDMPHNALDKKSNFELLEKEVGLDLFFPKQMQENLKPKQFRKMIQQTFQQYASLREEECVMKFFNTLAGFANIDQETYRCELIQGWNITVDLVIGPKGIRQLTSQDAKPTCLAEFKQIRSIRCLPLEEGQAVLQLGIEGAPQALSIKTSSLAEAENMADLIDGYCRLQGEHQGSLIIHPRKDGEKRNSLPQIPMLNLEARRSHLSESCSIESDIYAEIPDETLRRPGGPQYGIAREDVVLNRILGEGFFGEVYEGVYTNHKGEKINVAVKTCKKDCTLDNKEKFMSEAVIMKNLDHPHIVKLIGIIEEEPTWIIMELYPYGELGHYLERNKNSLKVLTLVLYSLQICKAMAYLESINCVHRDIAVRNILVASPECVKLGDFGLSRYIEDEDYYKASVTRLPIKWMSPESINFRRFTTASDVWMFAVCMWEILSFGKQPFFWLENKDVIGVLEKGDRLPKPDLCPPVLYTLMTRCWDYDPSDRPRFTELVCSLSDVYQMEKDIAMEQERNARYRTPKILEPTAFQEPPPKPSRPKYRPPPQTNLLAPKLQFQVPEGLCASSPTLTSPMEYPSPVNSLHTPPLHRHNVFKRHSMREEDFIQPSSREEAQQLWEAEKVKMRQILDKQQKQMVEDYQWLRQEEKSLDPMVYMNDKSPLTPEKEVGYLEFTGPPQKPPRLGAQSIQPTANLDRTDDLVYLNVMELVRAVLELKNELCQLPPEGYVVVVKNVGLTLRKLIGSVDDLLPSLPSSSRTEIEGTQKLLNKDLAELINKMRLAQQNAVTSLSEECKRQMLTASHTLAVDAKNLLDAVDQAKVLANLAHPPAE

Q: For COc1cc(OC)c(-c2c3cc(O)c(=O)cc-3oc3cc(O)c(O)cc23)cc1OC, which IC50 (Nonstructural protein 1) is on record?
A: The IC50 was 41.7 µM (active).

Q: And the IC50 (Beta-lactamase)?
A: The IC50 was 5.62 µM (active).

Q: What about the IC50 (Large T antigen) of the same molecule?
A: The IC50 was 1.73 µM (active).

Q: What about the EC50 (HEK293) of the same molecule?
A: Its EC50 is > 6.21 µM (active).

Q: What about the IC50 [1] of the same molecule?
A: The IC50 was > 50 µM (not active).

Q: Which results are given for Oc1nc(Nc2ccccc2)cc2ccccc12?
A: IC50 [2]: > 69.5 µM (not active); IC50 (Cysteine protease ATG4B): 9.22 µM (active); IC50 [3]: 0.899 µM (active); IC50 (Caspase-3): 1.02 µM (active); IC50 (SUMO E1/E2): 6.32 µM (active); IC50 (Bcl-2-related protein A1): > 100 µM (not active)

Q: For CCCCCCCCCCOC(=O)C[n+]1c(COc2ccccc2C)n(C)c2ccccc21, which EC50 (Mu-type opioid receptor) is on record?
A: The EC50 was > 92.5 µM (inactive).

Q: And the EC50 [4]?
A: Its EC50 is 0.68 µM (active).

Q: What about the EC50 [5] of the same molecule?
A: Its EC50 is > 60 µM (not active).
